Data taken from DBAASP.
Values after ≈ are worked out from the molar mass of the structure shown.

Columns and labels:
Assay in all cases: ≥ marks a high value that may be exact or a test limit, other limits are often not marked, values filed in µg/mL are converted to µM
[1] = system: Escherichia coli ATCC 25922
[2] = system: Bacillus licheniformis X39
[3] = system: Rhodococcus rhodochrous X15
[4] = system: Staphylococcus epidermidis ATCC 12228
[5] = system: Klebsiella pneumoniae ATCC 700603
[6] = system: Pseudomonas aeruginosa ATCC 27853
[7] = system: Acinetobacter baumannii 9931
[8] = system: Acinetobacter baumannii 97830
[9] = system: Acinetobacter baumannii ATCC 19606
[10] = system: Bacillus subtilis ATCC 23857
[11] = system: Pseudomonas aeruginosa 73
[12] = system: Pseudomonas aeruginosa 50
[13] = system: Escherichia coli 804
[14] = system: Staphylococcus aureus 113
[15] = system: Pseudomonas aeruginosa ATCC 9027
[16] = system: Staphylococcus aureus ATCC 29213
[17] = system: Escherichia coli 780
[18] = system: Staphylococcus aureus 75
[19] = system: Escherichia coli ATCC 2592
[20] = system: Staphylococcus aureus ATCC 33591
[21] = system: Pseudomonas aeruginosa ATCC 10145
[22] = system: Cryptococcus neoformans ATCC 32045
[23] = system: Candida albicans ATCC 10231

MIC [4] [µM] | MIC [5] [µM] | MIC [6] [µM] | MIC [7] [µM] | MIC [8] [µM] | MIC [9] [µM] | MIC [10] [µM] | MIC [11] [µM] | MIC [12] [µM] | MIC [13] [µM] | MIC [14] [µM] | MIC [15] [µM] | MIC [16] [µM] | MIC [17] [µM] | MIC [18] [µM] | MIC [19] [µM] | MIC [20] [µM] | MIC [21] [µM] | MIC [22] [µM] | MIC [23] [µM] | also measured | SMILES
– | – | – | – | – | – | – | – | – | – | – | – | – | – | – | – | – | – | – | – | MIC [1]: 150 µM (≈ 389 µg/mL); MIC [2]: ≥ 75 µM; MIC [3]: 9 µM (≈ 23.3 µg/mL) | CC[C@H](C)[C@@H]1NC(=O)[C@H](CCCCN)NC(=O)[C@@H](NC(=O)[C@H](Cc2ccccc2)NC(=O)[C@H](CC(C)C)NC(=O)[C@@H](NC(=O)[C@@H]2CCCN2C(=O)[C@@H](NC(=O)[C@@H](NC(=O)[C@H](CC(N)=O)NC(=O)[C@H](C)NC(=O)[C@H](C)NC(=O)[C@@H](NC(=O)[C@H](CCCCN)NC(=O)[C@H](CC(C)C)NC(=O)[C@H](C)NC(=O)[C@@H](NC(=O)[C@H](CO)NC(=O)[C@H](CC(C)C)NC(=O)[C@@H](N)Cc2ccccc2)[C@@H](C)O)C(C)C)C(C)C)C(C)C)[C@@H](C)O)CSSC[C@@H](C(=O)O)NC(=O)[C@H](CCCCN)NC(=O)[C@H](CCCCN)NC(=O)[C@H]([C@@H](C)O)NC1=O [FLSTALKVAANVVPTLFCKITKKC]
4 (≈ 5.95 µg/mL) | 8 (≈ 11.9 µg/mL) | 32 (≈ 47.6 µg/mL) | 8 (≈ 11.9 µg/mL) | 8 (≈ 11.9 µg/mL) | 32 (≈ 47.6 µg/mL) | 4 (≈ 5.95 µg/mL) | ≥ 32 | 16 (≈ 23.8 µg/mL) | 8 (≈ 11.9 µg/mL) | 4 (≈ 5.95 µg/mL) | 32 (≈ 47.6 µg/mL) | 4 (≈ 5.95 µg/mL) | 16 (≈ 23.8 µg/mL) | 8 (≈ 11.9 µg/mL) | – | – | – | – | – | – | CC[C@H](C)[C@H](N)C(=O)N[C@@H](Cc1c[nH]c2ccccc12)C(=O)N[C@@H](CCCN=C(N)N)C(=O)N[C@@H](Cc1c[nH]c2ccccc12)C(=O)N[C@@H](Cc1c[nH]c2ccccc12)C(=O)N[C@@H](Cc1c[nH]c2ccccc12)C(=O)N[C@@H](CCCN=C(N)N)C(=O)N[C@@H](Cc1c[nH]c2ccccc12)C(=O)N[C@H](C(N)=O)[C@@H](C)CC [IWRWWWRWI]
– | – | – | – | – | – | – | – | – | – | – | – | – | – | – | 9.46 (≈ 22.6 µg/mL) | ≥ 105 | 3.35 (≈ 8 µg/mL) | 4.73 (≈ 11.3 µg/mL) | 44.4 (≈ 106 µg/mL) | – | C[C@H](NC(=O)[C@H](Cc1ccccc1)NC(=O)[C@H](CCCCN)NC(=O)[C@H](CCCCN)NC(=O)[C@H](C)NC(=O)[C@H](Cc1ccccc1)NC(=O)[C@H](CCCCN)NC(=O)[C@H](CCCCN)NC(=O)[C@H](C)NC(=O)[C@H](Cc1ccccc1)NC(=O)[C@H](CCCCN)NC(=O)[C@H](CCCCN)NC(=O)[C@H](C)NC(=O)[C@H](Cc1ccccc1)NC(=O)[C@H](CCCCN)NC(=O)[C@H](CCCCN)NC(=O)[C@H](C)NC(=O)[C@H](Cc1ccccc1)NC(=O)[C@@H](N)CCCCN)C(=O)N[C@@H](CCCCN)C(=O)O [KFAKKFAKKFAKKFAKKFAK]
– | – | – | – | – | – | – | – | – | – | – | – | – | – | – | 6.2 (≈ 22.6 µg/mL) | ≥ 48.4 | ≥ 34.2 | 24.1 (≈ 88 µg/mL) | 96.9 (≈ 354 µg/mL) | – | NCCCC[C@H](NC(=O)[C@H](Cc1ccccc1)NC(=O)[C@H](CCCCN)NC(=O)[C@H](CCCCN)NC(=O)[C@H](Cc1ccccc1)NC(=O)[C@H](CCCCN)NC(=O)[C@H](CCCCN)NC(=O)[C@H](Cc1ccccc1)NC(=O)[C@H](CCCCN)NC(=O)[C@H](CCCCN)NC(=O)[C@H](Cc1ccccc1)NC(=O)[C@H](CCCCN)NC(=O)[C@H](CCCCN)NC(=O)[C@H](Cc1ccccc1)NC(=O)[C@H](CCCCN)NC(=O)[C@H](CCCCN)NC(=O)[C@H](Cc1ccccc1)NC(=O)[C@H](CCCCN)NC(=O)[C@H](CCCCN)NC(=O)[C@H](Cc1ccccc1)NC(=O)[C@H](CCCCN)NC(=O)[C@H](CCCCN)NC(=O)[C@H](Cc1ccccc1)NC(=O)[C@H](CCCCN)NC(=O)[C@H](CCCCN)NC(=O)[C@H](Cc1ccccc1)NC(=O)[C@@H](N)CCCCN)C(=O)O [KFKKFKKFKKFKKFKKFKKFKKFKKFK]
– | – | – | – | – | – | – | – | – | – | – | – | – | – | – | ≥ 36.2 | ≥ 103 | 25.5 (≈ 62 µg/mL) | ≥ 36.2 | > 206 | – | CC(C)C[C@H](NC(=O)[C@H](CCCCN)NC(=O)[C@H](CCCCN)NC(=O)[C@H](CC(C)C)NC(=O)[C@H](CC(C)C)NC(=O)[C@H](CCCCN)NC(=O)[C@H](CCCCN)NC(=O)[C@H](CC(C)C)NC(=O)[C@H](CC(C)C)NC(=O)[C@H](CCCCN)NC(=O)[C@H](CCCCN)NC(=O)[C@H](CC(C)C)NC(=O)[C@H](CC(C)C)NC(=O)[C@H](CCCCN)NC(=O)[C@H](CCCCN)NC(=O)[C@H](CC(C)C)NC(=O)[C@H](CC(C)C)NC(=O)[C@H](CCCCN)NC(=O)[C@H](CCCCN)NC(=O)[C@@H](N)CC(C)C)C(=O)O [LKKLLKKLLKKLLKKLLKKL]
4 (≈ 5.59 µg/mL) | 64 (≈ 89.5 µg/mL) | 32 (≈ 44.8 µg/mL) | ≥ 32 | ≥ 64 | 128 (≈ 179 µg/mL) | 4 (≈ 5.59 µg/mL) | ≥ 128 | ≥ 128 | ≥ 64 | 16 (≈ 22.4 µg/mL) | 32 (≈ 44.8 µg/mL) | 8 (≈ 11.2 µg/mL) | ≥ 64 | 8 (≈ 11.2 µg/mL) | – | – | – | – | – | – | CC(C)[C@H](N)C(=O)N[C@@H](CCCN=C(N)N)C(=O)N[C@@H](CCCN=C(N)N)C(=O)N[C@@H](Cc1c[nH]c2ccccc12)C(=O)N[C@@H](Cc1c[nH]c2ccccc12)C(=O)N[C@@H](Cc1c[nH]c2ccccc12)C(=O)N[C@@H](CCCN=C(N)N)C(=O)N[C@@H](CCCN=C(N)N)C(=O)N[C@H](C(N)=O)C(C)C [VRRWWWRRV]
4 (≈ 5.83 µg/mL) | 8 (≈ 11.7 µg/mL) | 32 (≈ 46.7 µg/mL) | 8 (≈ 11.7 µg/mL) | 4 (≈ 5.83 µg/mL) | 16 (≈ 23.3 µg/mL) | 4 (≈ 5.83 µg/mL) | ≥ 32 | ≥ 32 | 16 (≈ 23.3 µg/mL) | 4 (≈ 5.83 µg/mL) | 32 (≈ 46.7 µg/mL) | 4 (≈ 5.83 µg/mL) | 4 (≈ 5.83 µg/mL) | 4 (≈ 5.83 µg/mL) | – | – | – | – | – | – | CC(C)[C@H](N)C(=O)N[C@@H](Cc1c[nH]c2ccccc12)C(=O)N[C@@H](CCCN=C(N)N)C(=O)N[C@@H](Cc1c[nH]c2ccccc12)C(=O)N[C@@H](Cc1c[nH]c2ccccc12)C(=O)N[C@@H](Cc1c[nH]c2ccccc12)C(=O)N[C@@H](CCCN=C(N)N)C(=O)N[C@@H](Cc1c[nH]c2ccccc12)C(=O)N[C@H](C(N)=O)C(C)C [VWRWWWRWV]
